Experimental data as given in ChEMBL document CHEMBL4806969, “Modulators of mas-related g-protein receptor x4 and related products and methods” (2020).
pIC50: −log10 of the molar value.

target: Mas-related G-protein coupled receptor member X4 (Homo sapiens, UniProt Q96LA9); assay: Antagonist activity at human MRGPRX4 expressed in HEK cells incubated in dark for 1 hr at 37 degree C and then incubated for 30 mins at room temperature in presence of […] bilirubin by HTRF assay; format: functional, cell-based
Sequence (Q96LA9 whole entry): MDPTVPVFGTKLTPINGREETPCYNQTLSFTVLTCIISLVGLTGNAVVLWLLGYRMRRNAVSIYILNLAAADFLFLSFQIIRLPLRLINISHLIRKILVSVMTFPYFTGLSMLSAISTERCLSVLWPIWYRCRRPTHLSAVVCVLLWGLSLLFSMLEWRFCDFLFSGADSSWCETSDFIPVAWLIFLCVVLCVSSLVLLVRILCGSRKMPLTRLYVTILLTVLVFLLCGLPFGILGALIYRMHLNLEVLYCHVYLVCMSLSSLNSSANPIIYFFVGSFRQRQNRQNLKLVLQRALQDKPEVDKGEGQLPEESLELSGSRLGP

Row | pIC50 | SMILES
1 | < 5.60 | O=C(O)c1cccc(COc2ccccc2Cl)c1
2 | < 5.60 | NC(=O)c1cccc(COc2cccc(Cl)c2Cl)c1
3 | > 7.00 | O=C(O)c1cc(COc2ccc(C(F)(F)F)cc2Cl)cc(C2CC2)c1
4 | > 7.00 | Cc1cc(C(F)(F)F)ccc1OCc1cccc(-c2nnn[nH]2)c1
5 | > 7.00 | CCOC(=O)c1cccc(COc2ccc(C(F)(F)F)cc2Cl)n1
6 | > 7.00 | O=C(O)c1cccc(CNc2ccc(C(F)(F)F)cc2Cl)c1
7 | > 7.00 | Fc1ccc(OCc2cccc(-c3nnn[nH]3)c2)c(Cl)c1
8 | > 7.00 | N#Cc1cc(COc2ccc(OC(F)(F)F)cc2Cl)cc(C(=O)O)c1
9 | > 7.00 | O=C(O)c1cc(Cl)cc(COc2ccc(Cl)cc2Cl)c1
10 | > 7.00 | O=C(O)c1nc(COc2ccc(C(F)(F)F)c(Cl)c2)ccc1F
11 | < 5.60 | O=C(O)c1cccc(NC(=O)c2cccc(COc3ccc(C(F)(F)F)cc3Cl)c2)c1
12 | > 7.00 | CCc1cc(COc2ccc(Cl)c(Cl)c2Cl)nc(C(=O)O)c1
13 | > 7.00 | O=C(O)c1cccc(CNc2ccc(C(F)(F)F)cc2Cl)n1
14 | < 5.60 | CC(=O)c1ccc(OCc2cccc(C(=O)O)c2)cc1
15 | < 5.60 | O=C(O)c1cccc(COc2ccc3c(c2)C(=O)CCC3)c1
16 | > 7.00 | O=C(O)c1cccc(COc2ccc(C(F)(F)F)c(F)c2)c1
17 | < 5.60 | N#Cc1ccc(OCc2cccc(C(=O)O)c2)cc1
18 | > 7.00 | O=C(O)c1cc(F)cc(COc2ccc3ccccc3c2)c1
19 | > 7.00 | COc1cc(COc2ccc(Cl)cc2Cl)cc(C(=O)O)c1
20 | < 5.60 | O=C(O)c1cccc(COc2ccc3c(c2)CCC3=O)c1
21 | > 7.00 | O=C(O)c1cccc(COc2ccc(C(F)(F)F)cc2C(F)(F)F)c1
22 | > 7.00 | O=C(O)c1cccc(COc2ccc(C(F)(F)F)c(Cl)c2)n1
23 | > 5.60 | Cc1noc(-c2cccc(COc3ccc(C(F)(F)F)cc3Cl)c2)n1

Row | pIC50 | SMILES
24 | < 5.60 | COC(=O)c1cccc(COc2ccc3scnc3c2)c1
25 | < 5.60 | Cc1ccc(COc2ccc(Cl)cc2Cl)cc1C(=O)O
26 | > 7.00 | O=C(O)c1c(F)ccc(COc2ccc(C(F)(F)F)cc2Cl)c1F
27 | > 7.00 | O=C(O)c1cccc(COc2ccc3ccccc3c2)n1
28 | > 7.00 | Fc1ccc(COc2ccc(C(F)(F)F)cc2Cl)cc1-c1nnn[nH]1
29 | > 7.00 | COCCCNC(=O)c1cccc(COc2ccc(C(F)(F)F)cc2Cl)c1
30 | > 7.00 | CCCc1cc(COc2ccc(C(F)(F)F)cc2Cl)nc(C(=O)O)c1
31 | < 5.60 | CC(C)(C)c1ccccc1OCc1cccc(C(=O)O)c1
32 | > 7.00 | Cc1cc(C(F)(F)F)ccc1OCc1cccc(C(=O)O)c1
33 | < 5.60 | CC(C)c1ccccc1OCc1cccc(C(=O)O)c1
34 | > 7.00 | O=C(O)c1cccc(COc2ccc(Cl)cc2C(F)(F)F)c1F
35 | > 7.00 | O=C(O)c1cccc(COc2ccc3ccccc3c2)c1F
36 | > 7.00 | O=C(O)c1cccc(COc2ccc(Cl)c(F)c2)c1
37 | > 7.00 | O=C(O)c1cccc(COc2ccc(C(F)F)cc2Cl)c1
38 | > 7.00 | O=C(O)c1cccc(COc2ccc(OC(F)(F)F)c(Cl)c2)c1
39 | > 7.00 | O=C(O)c1cc(C2CC2)cc(COc2ccc(C(F)(F)F)cc2Cl)n1
40 | > 7.00 | Cc1cc(CNc2ccc(C(F)(F)F)cc2Cl)nc(C(=O)O)c1
41 | < 5.60 | O=C(O)c1cccc(COc2ccc(F)cc2Cl)c1
42 | < 5.60 | Cc1cc(OCc2cccc(C(=O)O)c2)ccc1OC(F)(F)F
43 | > 7.00 | FC(F)(F)Oc1ccc(OCc2cccc(-c3nnn[nH]3)c2)c(Cl)c1
44 | > 7.00 | O=C(O)CNC(=O)c1cccc(COc2ccc(C(F)(F)F)cc2Cl)c1
45 | > 7.00 | Cc1cc(C(F)(F)F)ccc1OCc1cc(F)cc(C(=O)O)c1
46 | > 7.00 | FC(F)(F)Oc1ccc(OCc2cccc(-c3nnn[nH]3)c2)cc1Cl

Row | pIC50 | SMILES
47 | > 7.00 | COC(=O)c1cccc(COc2ccc(C(F)(F)F)cc2Cl)n1
48 | > 7.00 | CC(Oc1ccc(C(F)(F)F)cc1Cl)c1cccc(C(=O)O)c1 (stereo not given)
49 | > 7.00 | c1cc(COc2ccc3ccccc3c2)cc(-c2nnn[nH]2)c1
50 | > 7.00 | Fc1cc(OCc2cccc(-c3nnn[nH]3)c2)ccc1C(F)(F)F
51 | > 7.00 | Cc1cc(C(F)(F)F)ccc1OCc1cc(C#N)cc(C(=O)O)c1
52 | < 5.60 | O=C(O)c1cccc(COc2ccc(Oc3ccccc3)cc2)c1
53 | > 7.00 | COc1cc(COc2ccc(C(F)(F)F)cc2Cl)cc(C(=O)O)c1
54 | < 5.60 | O=C(O)c1cccc(COc2ccccc2C(F)F)c1
55 | > 7.00 | O=C(O)c1cccc(COc2ccc(C(F)(F)F)c(Cl)c2)c1F
56 | > 7.00 | O=C(O)c1nc(COc2ccc(C(F)(F)F)cc2Cl)ccc1F
57 | > 7.00 | N#Cc1cc(COc2ccc(C(F)(F)F)c(Cl)c2)cc(C(=O)O)c1
58 | < 5.60 | O=C(O)c1cccc(Oc2ccc([N+](=O)[O-])cc2Cl)c1
59 | < 5.60 | O=C(O)c1cccc(COc2c(Cl)cccc2Cl)c1
60 | > 7.00 | Cc1cc(COc2ccc(OC(F)(F)F)cc2Cl)cc(C(=O)O)c1
61 | > 7.00 | Cc1cc(COc2ccc(Cl)cc2Cl)cc(C(=O)O)c1
62 | > 7.00 | Cc1cc(COc2ccc(C(F)(F)F)cc2Cl)nc(C(=O)O)c1
63 | > 7.00 | O=C(O)c1cc(Br)cc(COc2ccc(C(F)(F)F)cc2Cl)c1
64 | > 7.00 | O=C(O)c1cccc(COc2ccc3sccc3c2Cl)c1F
65 | > 7.00 | O=C(O)c1cccc(COc2ccc(C(F)(F)F)cc2Br)c1
66 | > 7.00 | N#Cc1cc(COc2ccc(C(F)(F)F)cc2Cl)nc(C(=O)O)c1
67 | < 5.60 | Cc1cc(OCc2cccc(C(=O)O)c2)ccc1C(F)(F)F
68 | < 5.60 | N#CCc1ccccc1OCc1cccc(C(=O)O)c1
69 | > 7.00 | O=C(O)c1cc(F)cc(COc2ccc(Cl)c(Cl)c2Cl)c1

Row | pIC50 | SMILES
70 | > 7.00 | Cc1cc(COc2ccc3ccccc3c2)nc(C(=O)O)c1
71 | > 7.00 | Cc1cc(COc2ccc3ccccc3c2)cc(C(=O)O)c1
72 | > 7.00 | Cc1cc(Cl)ccc1OCc1cccc(C(=O)O)c1F
73 | > 7.00 | Fc1cc(COc2ccc(C(F)(F)F)cc2Cl)cc(-c2nnn[nH]2)c1
74 | > 7.00 | Cc1ccc(OCc2cccc(C(=O)O)c2)c(Cl)c1Cl
75 | < 5.60 | O=C(O)c1cccc(COc2ccccc2Cl)c1F
76 | < 5.60 | O=C(O)c1cccc(COc2cccc(C(F)F)c2)c1
77 | > 7.00 | Fc1c(COc2ccc(C(F)(F)F)cc2Cl)cccc1-c1nnn[nH]1
78 | > 7.00 | O=C(O)c1cccc(COc2ccc(OC(F)(F)F)c(Cl)c2)n1
79 | > 7.00 | O=C(O)c1cccc(COc2ccc(Cl)c(F)c2Cl)c1
80 | > 7.00 | FC(F)(F)c1ccc(OCc2cccc(-c3nnn[nH]3)n2)c(Cl)c1
81 | > 7.00 | O=C(O)c1cccc(COc2ccc(OC(F)(F)F)cc2Cl)n1
82 | > 7.00 | O=C(O)c1cccc(COc2ccc(Cl)cc2Cl)c1Cl
83 | > 7.00 | Cc1cc(C(F)(F)F)ccc1OCc1cccc(C(=O)O)n1
84 | > 7.00 | O=C(O)c1cccc(COc2ccc(Cl)c(Cl)c2Cl)c1F
85 | < 5.60 | O=C(O)c1cccc(COc2cccc3c2OC(F)(F)O3)c1
86 | > 7.00 | Cc1cc(COc2ccc(C(F)(F)F)c(Cl)c2)cc(C(=O)O)c1
87 | < 5.60 | O=C(O)Cc1cccc(COc2ccc(Cl)cc2Cl)c1
88 | > 7.00 | CCc1cc(COc2ccc3ccccc3c2)nc(C(=O)O)c1
89 | > 7.00 | O=C(O)c1cc(F)cc(COc2ccc(Cl)cc2Cl)c1
90 | > 7.00 | O=C(O)c1cc(Br)cc(COc2ccc(C(F)(F)F)cc2Cl)n1
